# ChEMBL document CHEMBL1131748, “Nitroquinolones with broad-spectrum antimycobacterial activity in vitro” (1999)
# Key:
# Format in all cases: functional
# Staphylococcus aureus [1] = test: Minimum bactericidal concentration required in vitro against Staphylococcus aureus
# Salmonella [2] = test: Minimum inhibitory concentration required in vitro against Salmonella
# Mycobacterium avium [3] = test: Minimum inhibitory concentration required in vitro to reduce the number of viable of Mycobacterium avium complex (MAC) ATCC 49601 by 90%
# MT4 = test: Concentration required to reduce the viability of mock-infected MT-4 cells by 50%; conditions: Homo sapiens
# Shigella [4] = test: Minimum inhibitory concentration required in vitro against Shigella
# [5] = test system: Mycobacterium tuberculosis; test: Minimum inhibitory concentration required in vitro to reduce the number of viable of Mycobacterium tuberculosis ATCC 27294 by 50%
# Streptococcus [6] = test: Minimum inhibitory concentration required in vitro against Streptococcus D
# Mycobacterium avium [7] = test: Minimum inhibitory concentration required in vitro to reduce the number of viable of Mycobacterium avium complex (MAC) ATCC 49601 by 50%
# [8] = test system: Mycolicibacterium fortuitum; test: Minimum inhibitory concentration required in vitro to reduce the number of viable of Mycobacterium fortuitum (clinical isolate) by 50%
# Staphylococcus aureus [9] = test: Minimum inhibitory concentration required in vitro against Staphylococcus aureus
# [10] = test system: Mycolicibacterium smegmatis; test: Minimum inhibitory concentration required in vitro to reduce the number of viable of Mycobacterium smegmatis ATCC 19420 by 90%
# [11] = test system: Mycolicibacterium smegmatis; test: Minimum inhibitory concentration required in vitro to reduce the number of viable of Mycobacterium smegmatis ATCC 19420 by 50%
# Streptococcus [12] = test: Minimum bactericidal concentration required in vitro against Streptococcus D
# [13] = test system: Mycobacterium tuberculosis; test: Minimum inhibitory concentration required in vitro to reduce the number of viable of Mycobacterium tuberculosis clinical isolate 1104 by 50%
# Shigella [14] = test: Minimum bactericidal concentration required in vitro against Shigella
# [15] = test system: Mycobacterium tuberculosis; test: Minimum inhibitory concentration required in vitro to reduce the number of viable of Mycobacterium tuberculosis clinical isolate 1104 by 90%
# [16] = test system: Mycobacterium tuberculosis; test: Minimum inhibitory concentration required in vitro to reduce the number of viable of Mycobacterium tuberculosis ATCC 27294 by 90%
# Salmonella [17] = test: Minimum bactericidal concentration required in vitro against Salmonella
# [18] = test system: Mycolicibacterium fortuitum; test: Minimum inhibitory concentration required in vitro to reduce the number of viable of Mycobacterium fortuitum (clinical isolate) by 90%
Structure (SMILES),MBC (Staphylococcus aureus [1]),MIC (Salmonella [2]),MIC90 (Mycobacterium avium [3]),CC50 (MT4),MIC (Shigella [4]),MIC50 [5],MIC (Streptococcus [6]),MIC50 (Mycobacterium avium [7]),MIC50 [8],MIC (Staphylococcus aureus [9]),MIC90 [10],MIC50 [11],MBC (Streptococcus [12]),MIC50 [13],MBC (Shigella [14]),MIC90 [15],MIC90 [16],MBC (Salmonella [17]),MIC90 [18]
Nc1cc2c(=O)c(C(=O)O)cn(C3CC3)c2cc1NC1CC1,25 µM,> 200 µM,> 200 µM,200 µM,> 200 µM,> 200 µM,50 µM,129 µM,200 µM,25 µM,> 200 µM,156 µM,50 µM,> 200 µM,,,,,
CC(C)(C)n1cc(C(=O)O)c(=O)c2cc([N+](=O)[O-])c(NC3CC3)cc21,10 µM,25 µM,> 200 µM,≥ 200 µM,25 µM,31 µM,5 µM,47 µM,> 125 µM,2.5 µM,7 µM,2 µM,10 µM,47 µM,25 µM,> 200 µM,> 200 µM,25 µM,
O=C(O)c1cn(C2CC2)c2cc(N3CCNCC3)c(F)cc2c1=O [CIPROFLOXACIN],0.4 µM,0.01 µM,3 µM,60 µM,0.01 µM,,0.4 µM,2 µM,,0.4 µM,,,0.8 µM,,0.01 µM,,3 µM,0.01 µM,
CC(C)(C)Nc1cc2c(cc1F)c(=O)c(C(=O)O)cn2C(C)(C)C,12 µM,12 µM,,> 200 µM,12 µM,126 µM,12 µM,> 200 µM,36 µM,12 µM,> 200 µM,34.5 µM,12 µM,> 200 µM,25 µM,,≥ 200 µM,12 µM,129 µM
CC(C)(C)Nc1cc2c(cc1N)c(=O)c(C(=O)O)cn2C(C)(C)C,,> 125 µM,> 200 µM,> 200 µM,> 125 µM,168 µM,> 125 µM,140 µM,> 125 µM,> 125 µM,,> 125 µM,,> 200 µM,,> 200 µM,> 200 µM,,
O=C(O)c1cn(C2CC2)c2cc(NC3CC3)c([N+](=O)[O-])cc2c1=O,1.5 µM,1.5 µM,,40 µM,1.5 µM,≥ 200 µM,0.8 µM,> 200 µM,3.6 µM,0.8 µM,50 µM,3.2 µM,0.8 µM,72 µM,1.5 µM,> 200 µM,> 200 µM,1.5 µM,100 µM
O=C(O)c1cn(C2CC2)c2cc(NC3CC3)c(F)cc2c1=O,12 µM,12 µM,> 200 µM,> 200 µM,12 µM,> 200 µM,12 µM,> 200 µM,> 125 µM,12 µM,> 200 µM,150 µM,12 µM,> 200 µM,25 µM,,,12 µM,> 200 µM
CC(C)(C)Nc1cc2c(cc1[N+](=O)[O-])c(=O)c(C(=O)O)cn2C(C)(C)C,0.05 µM,3 µM,12 µM,140 µM,6 µM,1.4 µM,0.05 µM,1.2 µM,,0.05 µM,1.5 µM,0.5 µM,0.05 µM,1.5 µM,6 µM,6 µM,6 µM,6 µM,
CC1COc2c(N3CCN(C)CC3)c(F)cc3c(=O)c(C(=O)O)cn1c23 (stereo not drawn) [OFLOXACIN],0.8 µM,0.4 µM,3 µM,> 200 µM,0.4 µM,3 µM,1.5 µM,1.5 µM,2 µM,0.8 µM,4 µM,2 µM,1.5 µM,2 µM,0.4 µM,3 µM,3 µM,0.4 µM,5 µM
CC(C)(C)Nc1cc2c(cc1[N+](=O)[O-])c(=O)c(C(=O)O)cn2C1CC1,1.2 µM,25 µM,> 200 µM,192 µM,25 µM,35 µM,0.6 µM,54 µM,> 125 µM,0.6 µM,5 µM,2 µM,2.5 µM,16 µM,25 µM,> 200 µM,> 200 µM,25 µM,
